# Assay results reported in patent US20230278972A1, “SUBSTITUTED HALOALKYL SULFONANILIDE HERBICIDES” (FMC Corporation, priority 2020, published 2023).
# What was measured:
# Assay type in all cases: in vivo
# [1] = test system: blackgrass (Alopecurus myosuroides); experiment: Test A1 postemergence, blackgrass; conditions: 0 to 100 scale (0 no effect, 100 complete control)
# Procedure, shortened: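 Test compounds were formulated in a non-phytotoxic solvent mixture containing a surfactant. For preemergence, seeds sown in a loam soil–sand blend received a directed soil spray. For postemergence, potted plants in the same soil, 2 to 10 cm tall at the one- to two-leaf stage, were sprayed.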
# [2] = test system: corn (Zea mays); experiment: Test A1 postemergence, corn; conditions: 0 to 100 scale (0 no effect, 100 complete control)
# Procedure, shortened: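 Plants grown in pots of loam/sand mix; preemergence = soil-directed spray on seeded pots, postemergence = spray at 1–2 leaves, height 2–10 cm; test chemicals formulated in non-phytotoxic solvent with surfactant.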
# [3] = test system: Oat, Wild (wild oat, Avena fatua); experiment: Test A1 postemergence, Oat, Wild; conditions: 0 to 100 scale (0 no effect, 100 complete control)
# Procedure, shortened: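 Plants were grown in a loam soil/sand blend, with test chemicals formulated in a non-phytotoxic solvent mixture containing surfactant. Preemergence treatment (corn) was a directed soil spray at planting. Postemergence treatment was applied to plants 2 to 10 cm tall at the one- to two-leaf stage.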
# [4] = test system: rice (Oryza sativa); experiment: Test B1 flooded paddy test, rice; conditions: 250 g ai/ha, Flood, applied to paddy water, 2-leaf stage, visually evaluated after 10 to 14 days
# Excerpt: A dash (-) response means no test result.
# [5] = Postemergence, 125 g ai/ha, 10 days
structure (smiles),measurement,setting,value
Cc1cc(C)c(C2=NOC(C(C)C)C2)cc1NS(=O)(=O)C(F)(F)F (stereo not shown) [Compound 381],Blackgrass plant response rating,"[1]; 31 g ai/ha, postemergence",0
same,"Plant response rating, Blackgrass",[1]; [5],70
same,Corn plant response rating,"[2]; 31 g ai/ha, postemergence",0
same,"Plant response rating, Corn",[2]; [5],20
same,"Oat, Wild plant response rating","[3]; 31 g ai/ha, postemergence",0
same,"Plant response rating, Oat, Wild",[3]; [5],20
same,"Plant response rating, Rice (0 to 100 scale, 0 is no effect, 100 is complete control)",[4],0
